According to US20220226338A1, “Methods of Treating Cancer Using CHK1 Inhibitors” (Sierra Oncology, Inc., priority 2019, published 2022):
“And” between values parts separate entries of the source, which are not always exact repeats. Identical values can stand only once.

Experiments:
Single dose PK, dog = type: in vivo; details: Dog oral 5 mg/kg single dose
Source text: Several studies have been conducted to evaluate the PK properties of SRA737, such as the absorption (in vitro permeability assays and in vivo PK following IV and oral administration), distribution (in vivo tissue distribution and in vitro plasma protein binding) and metabolism (in vitro hepatocyte and CYP inhibition and induction studies) of SRA737.
The PK of SRA737 have been determined in the mouse, rat, dog and monkey following oral and IV administration (Table 3). […] An acceptable terminal elimination t1/2 was also observed in each species. […] The plasma protein binding of SRA737 at 1 and 10 μM was examined in mouse, minipig, monkey and human plasma using ultracentrifugation and in dog plasma (10 μM) using rapid equilibrium dialysis.

[1] = tested on: cryopreserved hepatocytes; experiment: Stability in cryopreserved rat hepatocytes; type: in vitro ADME; details: 10 μM, after 4 hours of incubation
Protocol: (§1) The formation of SRA737-related metabolites was determined in cryopreserved hepatocytes from human, mouse, rat, dog, minipig and monkey samples after incubation with SRA737 at a nominal concentration of 10 μM for up to 4 hours. […] In the human hepatocyte preparation, approximately 67% of the parent remained after 4 hours of incubation compared to 75% and 7% in the rat and minipig preparations, respectively. Eight human SRA737 metabolites were observed. All SRA737 metabolites formed by human hepatocytes were also formed by monkey hepatocytes. Six metabolites were present at equal or greater abundance in the monkey.

[2] = tested on: genetically defined tumors (HGSOC, CRC, mCRPC, NSCLC, SCCHN, SCCA); experiment: SRA737 monotherapy clinical study (SRA737-01), anti-tumor activity per RECIST v1.1; type: in vivo, human
Protocol: An in-human clinical trial is conducted to confirm efficacy of SRA737 monotherapy methods of treatment and patient selection strategies disclosed herein for prospectively-selected genetically-defined subjects with tumor types known to have a high prevalence of genomic alterations expected to sensitize the tumor to Chk1 inhibition (“Cohort Expansion Phase”). The Cohort Expansion Phase consists of 6 indication-specific expansion cohorts of approximately 20 prospectively-selected genetically-defined subjects each. The cohorts are subjects with previously treated metastatic colorectal cancer [CRC], high grade serous ovarian cancer [HGSOC] without CCNE1 gene amplification, HGSOC with CCNE1 gene amplification (or alternative genetic alteration with similar functional effect), metastatic castration-resistant prostate cancer [mCRPC], advanced non-small cell lung cancer [NSCLC], and squamous cell carcinoma of the head and neck [HNSCC], or squamous cell carcinoma of the anus [SCCA]. Subjects are initially administered SRA737 following the dosing regimen established in Example 4. The dosing regimen in some cases changes during the course of the trial.
All subjects who have measurable disease, receive at least one cycle of SRA737 and have a baseline plus at least 1 post-baseline assessment of disease are evaluable for response. Subjects who develop clear evidence of PD without a formal disease assessment and those without a formal disease assessment before study withdrawal are considered non-responders. Complete responses and PRs are required to be confirmed by a subsequent assessment at least 4 weeks later. Stable Disease (SD) determination requires that the relevant criteria be met at least once, a minimum of 6 weeks after the initial dose of SRA737 is given.
Response criteria are defined below: • a. Complete Response (CR): Disappearance of all target lesions. Any pathological lymph nodes (whether target or non-target), in general, have reduction in short axis to <10 mm. • b. Partial Response (PR): At least a 30% decrease in the sum of diameters of target lesions, taking as reference the baseline sum diameters. • c. Progressive Disease (PD): At least a 20% increase in the sum of diameters of target lesions, taking as reference the smallest sum on study (this includes the baseline sum if that is the smallest on study). […] (Note: the appearance of one or more new lesions is also considered progression). • d. Stable Disease (SD): Neither sufficient shrinkage to qualify for PR nor sufficient increase to qualify for PD, taking as reference the smallest sum diameters while on study.
The Cohort Expansion phase was contemporaneously initiated when circulating plasma concentrations of SRA737 exceeded the minimum effective concentration of SRA737 modelled from murine efficacy studies. Thereafter, experience gained in the ongoing Dose Escalation phase informed dose selection for expansion cohorts. The Cohort Expansion phase enrolled subjects with genetically defined tumors that harbored genomic alterations hypothesized to confer sensitivity to Chk1 inhibition, which were prospectively selected by next-generation sequencing (FoundationOne). Subjects with the following tumors were eligible for enrollment: ia) high grade serous ovarian cancer (HGSOC), ib) HGSOC putatively enriched for CCNE1 gene network amplification, ii) colorectal cancer (CRC), iii) metastatic castration-resistant prostate cancer (mCRPC), iv) non-small cell lung cancer (NSCLC), and v) squamous cell carcinomas (head and neck (SCCHN); anus (SCCA)).
Preliminary anti-tumor activity was assessed by target tumor response and overall response in accordance with RECIST v1.1.

[3] = Three-cycle combination toxicity study with gemcitabine and cisplatin; type: in vivo, mouse; details: mice; SRA737 with IV gemcitabine and cisplatin, intermittent schedule over 18 days; high dose triplet group
Source text: Clinical combination of SRA737 and gemcitabine in some cases therefore elicited exacerbated hematological and GI toxicities.

Chk1 = target: T1, Chk1 (Homo sapiens, UniProt O14757); details: previously found; Walton et al. Oncotarget 2016; cited from earlier work
T1 sequence (O14757 1-476): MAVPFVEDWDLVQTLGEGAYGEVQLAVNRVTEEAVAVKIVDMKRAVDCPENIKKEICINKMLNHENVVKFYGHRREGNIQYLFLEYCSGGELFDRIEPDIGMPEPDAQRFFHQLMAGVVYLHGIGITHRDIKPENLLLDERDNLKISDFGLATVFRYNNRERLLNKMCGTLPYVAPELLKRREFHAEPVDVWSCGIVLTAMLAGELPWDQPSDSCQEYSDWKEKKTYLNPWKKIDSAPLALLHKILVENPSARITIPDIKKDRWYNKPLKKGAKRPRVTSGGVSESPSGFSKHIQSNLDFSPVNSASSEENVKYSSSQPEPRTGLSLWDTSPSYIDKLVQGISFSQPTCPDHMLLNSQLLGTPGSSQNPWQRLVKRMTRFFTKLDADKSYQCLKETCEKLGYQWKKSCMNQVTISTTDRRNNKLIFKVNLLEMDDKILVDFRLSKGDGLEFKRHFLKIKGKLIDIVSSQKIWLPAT

[4] = tested on: cryopreserved hepatocytes; experiment: Rank order of hepatocyte stability across species; type: in vitro ADME, human, mouse, rat, dog, minipig and monkey; details: 10 μM, up to 4 hours
Protocol: as §1

[5] = FA/BRCA gene network alterations

## N#Cc1cnc(Nc2cc(NCC3CNCCO3)c(C(F)(F)F)cn2)cn1 (centres unmarked) [SRA737, 5-[[4-[[morpholin-2-yl]methylamino]-5-(trifluoromethyl)-2-pyridyl]amino]pyrazine-2-carbonitrile]
Single dose PK, dog
  Foral: 86%
[1]
  parent remaining: 75%
[2]
  confirmed RECIST partial or complete response: no subject had a confirmed RECIST partial or complete response
[2]; 4/24 HGSOC subjects
  responses of subjects with unambiguously positive CCNE1 amplification: 3 SD and 1 Progressive Disease (PD)
[2]; 107 subjects treated
  subjects with best overall response of SD: 34 (32%) n (%)
[2]; CCNE gene network alterations
  DCR: 67%
[2]; [5]
  DCR: 71%
  DOS: 3.8 cycles
[2]; HGSOC cohort
  Disease Control Rate (DCR): 54%
[2]; HGSOC subjects
  maximal target tumor decreases: 27% and 29%
[2]; HGSOC, CRC, mCRPC and NSCLC tumors
  anti-tumor activity by tumor type: Anti-tumor activity was observed
[2]; PI3K gene network alterations (PIK3CA, AKT, PTEN)
  DCR: 77%
[2]; RAS network mutations
  PDs: 15/20
  duration on study (DOS): 2 cycles
  overall average tumor % change: +20%
[2]; activating mutations in the RAS network
  DCR: 25%
[2]; data cut off 3 May 2019
  subjects with durable stable disease (SD) lasting ≥4 months: 22 (21%) n (%)
[3]
  additional finding in triple combination study: reversible intestinal epithelial degeneration
Chk1
  inhibitor of Chk1: potent and selective inhibitor of Chk1 with limited off-target activity against other kinases
[4]
  rank order of stability from most stable to least stable: rat≈mouse>monkey˜human>>dog>>minipig
